Results on 1 compound are retold here after patent publication US12171744B2, “Pharmaceutical combinations for the treatment of cancer” (Presage Biosciences, Inc., priority 2016, dated 2024).

For this experiment, the system named is HCC1187 triple negative breast cancer cells. Kind of experiment: Western blot of treated cells. The format is cell-based. How it is done: Cell lines shown in Table 1, adherent or suspension, were treated in 6-well dishes or T10 flasks respectively, seeded at one million per ml density prior to treatment in total volumes of 3-10 ml. All agents used for in vitro cell treatments were formulated in water/DMSO to achieve required concentrations (as stated in respective figure labels/legends) with DMSO concentrations not exceeding 0.01%. Drug sources are indicated in table under ‘CIVO microinjection studies’. Cells were harvested at experimental time points: 2, 6, or 24 hours post treatment as indicated in respective figures, first by washing cells twice in ice-cold PBS in 15 ml falcon tubes, centrifugation at 1000 rpm for 5 mins followed by lysis of the respective cell pellets as described in section below. Note: Drug resistant NUDHL1 Dox 1000 nM and Toledo Dox 1000 nM cell lines were generated at Presage by culturing parental lines in media with stepwise increments in Doxorubicin concentration over several passages. These cells were used to generate xenografts when resistance to 1 uM Dox was achieved.
Protein lysates were prepared by adding ice-cold 1×RIPA Buffer (from 10×, Millipore) with 1×-3× Halt protease and phosphatase inhibitor cocktail (100×, Pierce) to cell pellets, followed by pulse sonication (˜3-5 secs) three times. Lysates were cleared by centrifugation at 14K rpm for 15-20 mins and the supernatant (lysate) was collected for further analysis. To prepare lysates from cryopreserved xenograft tumor tissue, tissue was first homogenized using a hand-held tissue homogenizer (Cole Palmer) in above lysis buffer followed by pulse sonication and centrifugation as described above. Above steps were carried out under ice cold conditions. […] 20-25 micrograms of protein from each sample were subject to SDS-PAGE using BOLT 4-12% Bis-Tris gels (Thermofisher) and transferred to either 0.45 or 0.2 micron pore size membranes (as applicable based on protein molecular size), and either nitrocellulose (NC) or pvdf (Thermofisher) using manufacturer's protocol, blocked for one hour in 5% milk at room temperature, probed with primary antibodies (Table 2) at 4 deg C. overnight and corresponding HRP-conjugated secondary antibodies (Jackson Immunoresearch, 1:10,000-1:20,000 dilutions) for 1 hour at room temperature. Three PBS/0.01% Tween-20 washes (5-10 mins each) were carried out after each antibody incubation. ECL chemiluminescent substrate (Pierce or GE) and autoradiographic film (Thermofisher) was used for detection of protein signals.
1 ug of mRNA from each condition was used to generate cDNA using the High Capacity cDNA Reverse Transcription Kit (Applied Biosystems) and manufacturer's protocol. 100 ng cDNA was used to conduct a PCR assay to amplify XBP1 u or splice forms (Thermofisher PCR Supermix)—94 deg C. for 2 mins, (94 deg C. for 15 secs, 55 deg C. for 30 secs, 72 deg C. for 1 min)×30 cycles, 72 deg C. for 7 mins, hold at 4 deg C.
On the technique in general: In western blotting, separated proteins are transferred to a membrane and probed.

Where [1] appears, read: Western blot, voruciclib and bortezomib in combination.

SMILES strings stand for the structures. Entries after “also recorded” stand apart in the source; their conditions may differ.

Regarding `CN1CC[C@@H](c2c(O)cc(O)c3c(=O)cc(-c4ccc(C(F)(F)F)cc4Cl)oc23)[C@@H]1CO` (relative stereo) [voruciclib, (+)-trans-2-(2-Chloro-4-trifluoromethylphenyl)-5,7-dihydroxy-8-(2-hydroxymethyl-1-methylpyrrolidin-3-yl)-chromen-4-one], the MCL-1 protein expression entry (Western blot, compared to untreated sample) is on record as “reduced”. In addition, under setting [1], the “bortezomib-induced increase in MCL-1 expression” value is “decreased; also recorded: diminishes” and the “bortezomib-induced upregulation of XIAP” value is “diminishes”. For the same compound, the XBP1 upregulation entry (voruciclib combined with either bortezomib or tunicamycin) was “diminished”.
